PubChem BioAssay AID651650 (Sanford-Burnham Center for Chemical Genomics, 2012)
The source made the active and inactive calls.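 Rule for the calls: active = mean IC50 below 20 µM in each of the two panels, so potent in both; inactive = the rest.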

Target: Neuropilin-1 (Homo sapiens) (UniProt O14786)
Test: NRP-1 b1b2 CendR peptide binding inhibitors, dose response, biochemical, FP and AlphaScreen panel (AID 651650)
Settings: NRP-1 b1b2 / RPARPAR peptide binding, FP or AlphaScreen
[1] = AlphaScreen, run 1, individual panel run IC50
[2] = FP, run 1, individual panel run IC50
[3] = FP, run 2, individual panel run IC50

Neuropilin-1 (Homo sapiens), sequence (O14786 whole entry, looked up): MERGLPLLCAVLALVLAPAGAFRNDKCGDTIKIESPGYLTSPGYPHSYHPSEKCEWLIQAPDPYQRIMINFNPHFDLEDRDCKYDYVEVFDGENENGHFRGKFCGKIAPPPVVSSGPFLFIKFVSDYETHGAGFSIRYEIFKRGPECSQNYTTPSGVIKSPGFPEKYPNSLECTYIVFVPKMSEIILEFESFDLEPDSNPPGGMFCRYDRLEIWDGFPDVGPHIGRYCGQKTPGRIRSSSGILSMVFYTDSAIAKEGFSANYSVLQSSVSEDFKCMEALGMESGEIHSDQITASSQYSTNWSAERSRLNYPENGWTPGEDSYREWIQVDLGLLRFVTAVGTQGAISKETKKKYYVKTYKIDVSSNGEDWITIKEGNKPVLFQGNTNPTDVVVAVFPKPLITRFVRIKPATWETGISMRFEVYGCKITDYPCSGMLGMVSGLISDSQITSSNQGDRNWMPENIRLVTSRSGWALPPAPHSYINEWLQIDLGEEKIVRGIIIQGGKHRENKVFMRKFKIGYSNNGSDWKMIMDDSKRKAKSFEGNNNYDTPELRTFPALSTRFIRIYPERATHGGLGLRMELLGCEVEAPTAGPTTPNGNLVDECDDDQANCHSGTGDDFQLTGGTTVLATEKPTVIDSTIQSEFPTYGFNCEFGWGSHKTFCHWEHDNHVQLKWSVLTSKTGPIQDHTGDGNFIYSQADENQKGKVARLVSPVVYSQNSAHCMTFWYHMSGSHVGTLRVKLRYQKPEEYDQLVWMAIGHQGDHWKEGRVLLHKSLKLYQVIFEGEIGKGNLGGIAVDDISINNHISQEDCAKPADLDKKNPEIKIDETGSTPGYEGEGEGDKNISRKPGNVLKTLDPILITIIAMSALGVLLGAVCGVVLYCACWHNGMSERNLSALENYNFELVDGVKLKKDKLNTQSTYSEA

Row | IC50 (AlphaScreen, mean of runs) | IC50 [1] | IC50 (FP, mean of runs) | IC50 [2] | IC50 [3] | Structure (SMILES)
1 | > 100 µM (inactive) | > 100 µM | > 95 µM (inactive) | > 95 µM | > 95 µM | Cc1cc(NC(=O)COC(=O)c2ccc(C)c(C)c2)no1
2 | > 100 µM (inactive) | > 100 µM | > 95 µM (inactive) | > 95 µM | > 95 µM | CC(OC(=O)c1ccco1)C(=O)Nc1nc(-c2ccccc2)cs1 (stereo not given)
3 | > 100 µM (inactive) | > 100 µM | > 95 µM (inactive) | > 95 µM | > 95 µM | O=C(CSc1nnc(CNC(=O)C23CC4CC(CC(C4)C2)C3)n1-c1ccccc1)Nc1ccc(F)cc1
4 | > 100 µM (inactive) | > 100 µM | > 95 µM (inactive) | > 95 µM | > 95 µM | O=C(CSc1nc(O)c(Cc2ccccc2)c(=O)n1-c1ccccc1)N1CCOCC1
5 | > 100 µM (inactive) | > 100 µM | > 95 µM (inactive) | > 95 µM | > 95 µM | O=C(OCn1nnc2ccccc2c1=O)c1ccc(Br)o1
6 | > 100 µM (inactive) | > 100 µM | > 95 µM (inactive) | > 95 µM | > 95 µM | Cc1ccc(S(=O)(=O)NCC(=O)N(c2ccccc2)C(C(=O)NCc2ccccc2)c2ccco2)cc1 (stereo not given)
7 | > 100 µM (inactive) | > 100 µM | > 95 µM (inactive) | > 95 µM | > 95 µM | Cc1ccc(NC(=S)Nc2cccc3ccccc23)cc1
8 | 17.8 µM | 17.8 µM | > 95 µM (inactive) | > 95 µM | > 95 µM | Cc1cccc(NC(=O)c2ccc(OCc3c(C)noc3C)cc2)c1
9 | > 100 µM (inactive) | > 100 µM | > 95 µM (inactive) | > 95 µM | > 95 µM | CN(c1ccccc1)S(=O)(=O)c1cccc(NC(=O)CSc2nncn2C)c1
10 | > 100 µM (inactive) | > 100 µM | > 95 µM (inactive) | > 95 µM | > 95 µM | CCN(CC)C(=O)c1cccc(-c2csc(C(NC(C)=O)c3cccc(OC)c3)n2)c1 (stereo not given)
11 | > 100 µM (inactive) | > 100 µM | > 95 µM (inactive) | > 95 µM | > 95 µM | Cc1cc(C)n2c(SCC(=O)Nc3cccc(S(N)(=O)=O)c3)nnc2n1
12 | inactive | 90.5 µM | > 95 µM (inactive) | > 95 µM | > 95 µM | N=C1C(=O)OCC1c1cc(Cl)ccc1NC(=O)Nc1ccccc1 (stereo not given)
13 | > 100 µM (inactive) | > 100 µM | > 95 µM (inactive) | > 95 µM | > 95 µM | O=C(/C=C/c1ccccc1)c1ccccn1
14 | > 100 µM (inactive) | > 100 µM | > 95 µM (inactive) | > 95 µM | > 95 µM | Cc1nn(-c2ccccc2)c(C)c1C(=O)OCC(=O)Nc1ccccc1
15 | > 100 µM (inactive) | > 100 µM | > 95 µM (inactive) | > 95 µM | > 95 µM | Cc1cccc(-c2noc(CSc3ccccc3)n2)c1
16 | > 100 µM (inactive) | > 100 µM | > 95 µM (inactive) | > 95 µM | > 95 µM | COc1cccc(C(=O)N2N=C(c3ccccc3)CC2(O)C(F)(F)F)c1 (stereo not given)
17 | > 100 µM (inactive) | > 100 µM | > 95 µM (inactive) | > 95 µM | > 95 µM | CCOC(=O)c1c2ccc(OCC(=O)NN)cc2n2ccccc12
18 | inactive | 49.3 µM | > 95 µM (inactive) | > 95 µM | > 95 µM | O=C(O)c1ccc(C(=O)Nc2cccc3ccccc23)c(C(=O)O)c1

Further lines, the molecule ahead of its results:

Row | Structure (SMILES) | IC50 (AlphaScreen, mean of runs) | IC50 [1] | IC50 (FP, mean of runs) | IC50 [2] | IC50 [3]
19 | COc1ccc(C(O)c2nc(-c3ccc4ccccc4c3)cs2)cc1 (stereo not given) | > 100 µM (inactive) | > 100 µM | > 95 µM (inactive) | > 95 µM | > 95 µM
20 | Cc1ccc2c(c1)C(c1ccncc1)=NNC(c1ccc(F)cc1)=N2 | > 100 µM (inactive) | > 100 µM | > 95 µM (inactive) | > 95 µM | > 95 µM
21 | Cn1c(SCc2nc3ccccc3s2)nnc1-c1cccs1 | inactive | 46.6 µM | > 95 µM (inactive) | > 95 µM | > 95 µM
22 | COc1cccc(OCCNC(=O)Nc2cc(F)c(F)cc2Cl)c1 | > 100 µM (inactive) | > 100 µM | > 95 µM (inactive) | > 95 µM | > 95 µM
23 | c1ccc(OCCCN2CCCC2)cc1 | > 100 µM (inactive) | > 100 µM | > 95 µM (inactive) | > 95 µM | > 95 µM
24 | COc1ccc(-c2[nH]ncc2CN(C)CCc2c(C)n[nH]c2C)c(F)c1 | > 100 µM (inactive) | > 100 µM | > 95 µM (inactive) | > 95 µM | > 95 µM
25 | CC(C)COC(=O)C1C2C=CC3(CN(C(C)c4ccc(Br)cc4)C(=O)C13)O2 (stereo not given) | > 100 µM (inactive) | > 100 µM | > 95 µM (inactive) | > 95 µM | > 95 µM
26 | C=CCOc1ccc(C2/C(=C(\O)c3c(C)[nH]c(C(=O)OC)c3C)C(=O)C(=O)N2CCN(C)C)cc1 (stereo not given) | > 100 µM (inactive) | > 100 µM | > 95 µM (inactive) | > 95 µM | > 95 µM
27 | CCNS(=O)(=O)c1ccc(CCC(=O)O)cc1 | > 100 µM (inactive) | > 100 µM | > 95 µM (inactive) | > 95 µM | > 95 µM
28 | CCN1C(=O)C(=O)c2cc(C)ccc21 | > 100 µM (inactive) | > 100 µM | > 95 µM (inactive) | > 95 µM | > 95 µM
29 | CC(=O)Nc1ccc2nc3c(=O)n(C)c(=O)n(C)c3nc2c1 | inactive | 57.6 µM | > 95 µM (inactive) | > 95 µM | > 95 µM
30 | CCCCN(c1ccccc1)S(=O)(=O)c1ccc2c(c1)CCN2C(=O)CCC(=O)O | > 100 µM (inactive) | > 100 µM | > 95 µM (inactive) | > 95 µM | > 95 µM
31 | COc1ccc(-c2csc(Nc3cccnc3)n2)cc1 | > 100 µM (inactive) | > 100 µM | > 95 µM (inactive) | > 95 µM | > 95 µM
32 | Nc1cc(S(=O)(=O)O)cc([N+](=O)[O-])c1O | 4.28 µM | 4.28 µM | > 95 µM (inactive) | > 95 µM | > 95 µM
33 | FC(F)(F)C1CC(c2cccs2)Nc2ncnn21 (stereo not given) | > 100 µM (inactive) | > 100 µM | > 95 µM (inactive) | > 95 µM | > 95 µM
34 | Cc1csc(NC(C)c2nc3cc(C(F)(F)F)ccc3n2CCOCCO)n1 (stereo not given) | > 100 µM (inactive) | > 100 µM | > 95 µM (inactive) | > 95 µM | > 95 µM
35 | COc1ccc(Cn2c(C3CC3)nc3ccc(NC(=O)c4cccnc4)cc3c2=O)cc1 | inactive | 31.7 µM | > 95 µM (inactive) | > 95 µM | > 95 µM
36 | CC(C)(C)OC(=O)N1CCC(NC(=O)c2nc[nH]c2C(=O)N2CCc3ccccc3C2)CC1 | > 100 µM (inactive) | > 100 µM | > 95 µM (inactive) | > 95 µM | > 95 µM
37 | CC(C)(C)OC(=O)N1CCN(C(=O)c2[nH]cnc2C(=O)NCc2ccccc2)CC1 | > 100 µM (inactive) | > 100 µM | > 95 µM (inactive) | > 95 µM | > 95 µM
38 | Cc1nnc(SC(C)C(=O)Nc2ccc(S(=O)(=O)NC3CCCCC3)cc2)s1 (stereo not given) | > 100 µM (inactive) | > 100 µM | > 95 µM (inactive) | > 95 µM | > 95 µM
39 | CCOC(=O)[C@]12CCCC=C1N(CCC1=CCCCC1)C(=O)[C@H](CC(=O)NCC13CC4CC(CC(C4)C1)C3)C2 | > 100 µM (inactive) | > 100 µM | > 95 µM (inactive) | > 95 µM | > 95 µM
40 | CCOc1ccc(C2CC(c3ccc(CC)cc3)n3nc(N)nc3N2)cc1 (stereo not given) | > 100 µM (inactive) | > 100 µM | > 95 µM (inactive) | > 95 µM | > 95 µM
41 | CN(C(=O)COC(=O)c1cnc(Cl)c(Cl)c1)C1CCCCC1 | > 100 µM (inactive) | > 100 µM | > 95 µM (inactive) | > 95 µM | > 95 µM
42 | CCOC(=O)/C=C/COc1ccccc1[N+](=O)[O-] | > 100 µM (inactive) | > 100 µM | > 95 µM (inactive) | > 95 µM | > 95 µM
43 | CCOc1ccccc1N1CCN(C(=O)c2ccncc2)CC1 | > 100 µM (inactive) | > 100 µM | > 95 µM (inactive) | > 95 µM | > 95 µM
44 | NC(=S)NNC(=S)Nc1ccccc1 | > 100 µM (inactive) | > 100 µM | > 95 µM (inactive) | > 95 µM | > 95 µM
45 | COC(=O)CCCC1=CC2=CC(=O)C(C)(OC(=O)c3cccs3)C(=O)C2=CN1CCCCO (stereo not given) | > 100 µM (inactive) | > 100 µM | > 95 µM (inactive) | > 95 µM | > 95 µM
